Measured values from patent US20160022708A1, “METHODS AND COMPOSITIONS FOR THE TREATMENT OF GLUTAMINE-ADDICTED CANCERS” (ST. JUDE CHILDREN'S RESEARCH HOSPITAL, priority 2013, published 2016).
Counter-ions that a name gives are not always drawn. Like-named read-outs stand apart in the source and are kept apart here.

What was measured:
[1] = tested on: neuroblastoma and Ewing's sarcoma cell lines; assay: CyQuant viability assay, panel of NB and Ewing's sarcoma cell lines; format: cell-based; conditions: for single agent effect: more glutamine-addicted cell lines such as IMR32, Kelly, RD-ES and SK-ES-1; for effectiveness on cancer cell lines: broad ranges of drug concentrations; for efficacy as single agent in vitro: single agents
Protocol: To survey the effects of DON on neuroblastomas and Ewing's sarcomas, DON was tested on six neuroblastoma (SK-N-AS, SK-N-BE(2), SK-N-FI, IMR32, Kelly, and SH-SySy) and three Ewing's sarcoma cell lines (SK-N-MC, RD-ES and SK-ES-1) and a control immortalized foreskin fibroblast cell line (BJ). Using the CyQuant viability assay, the respective sensitivities of each cell line to DON were determined after 72 hrs of treatment in a universal media (EMEM, 10% FBS, 0.5 mM glutamine) containing physiological levels of glutamine and glucose. […] More strikingly, all three Ewing's sarcoma cell lines were especially sensitive to DON with an 80% loss in cell viability (FIG. 1B). […]
(§1) 6-diazo-5-oxo-L-norleucine (Sigma Aldrich, St. Louis, Mo.) and epigallocatechin-3-gallate (Sigma Aldrich, St. Louis, Mo.) were solubilized in water, aminooxyacetate (Sigma Aldrich, St. Louis, Mo.), obatoclax mesylate (Selleckchem,), and ABT-263 (Sellekchem) were dissolved in 100% dimethyl sulfoxide (DMSO). In a 96-well tissue culture plate, 5×10^4 cells were plated in 100 ul of media containing EMEM, 10% FBS and 0.5 mM glutamine per well. Four hours after plating drugs were diluted to a 2× concentration in plating media and added to wells. Plates were incubated for 72-hrs and then submitted to CyQuant Cell Direct Proliferation Assay (Life Technologies) according to manufacturer's instructions and read with a Synergy HT Multi-mode microplate reader (Biotek).

BJ foreskin fibroblasts = assay: CyQuant viability assay, control cell line; format: cell-based
Protocol: (§2) To survey the effects of DON on neuroblastomas and Ewing's sarcomas, DON was tested on six neuroblastoma (SK-N-AS, SK-N-BE(2), SK-N-FI, IMR32, Kelly, and SH-SySy) and three Ewing's sarcoma cell lines (SK-N-MC, RD-ES and SK-ES-1) and a control immortalized foreskin fibroblast cell line (BJ). Using the CyQuant viability assay, the respective sensitivities of each cell line to DON were determined after 72 hrs of treatment in a universal media (EMEM, 10% FBS, 0.5 mM glutamine) containing physiological levels of glutamine and glucose. […] More strikingly, all three Ewing's sarcoma cell lines were especially sensitive to DON with an 80% loss in cell viability (FIG. 1B).
as §1

[2] = cited from earlier work
[3] = in vivo; cited from earlier work
SK-N-FI cells = assay: CyQuant viability assay; format: cell-based; conditions: DON 72 hrs; EMEM, 10% FBS, 0.5 mM glutamine
Protocol: as §2
as §1, with “Four hours after plating drugs were diluted to a 2× concentration in plating media and added to wells.” left out

[4] = tested on: Ewing's sarcoma cell lines (SK-N-MC, RD-ES and SK-ES-1); assay: CyQuant viability assay, Ewing's sarcoma cell lines; format: cell-based; conditions: all three Ewing's sarcoma cell lines; DON 72 hrs
Protocol: as §2
as §1, with “Four hours after plating drugs were diluted to a 2× concentration in plating media and added to wells.” left out

IMR32 tumors = assay: Subcutaneous tumor growth; format: in vivo, mice; conditions: 50 mg/kg twice weekly I.P.
Protocol: (§3) DON's effects on NB and EWS tumors in vivo were assessed. Subcutaneous tumors for the neuroblastoma cell lines SK-N-AS and SK-N-BE(2) as well as the Ewing's Sarcoma cell lines SK-N-MC and SK-ES-1 were grown to at least 200 mm^3 and were then randomized into either DON or control treatment groups. Mice were then treated with 100 mg/kg of DON or water control twice a week by intraperitoneal (I.P.) injection, equivalent to a twice a week dose of 300 mg/m^2 in children. Previous work has shown that a dose as high as 520 mg/m^2 was safely achievable in children. […] To attempt to extend the course of treatment, mice either were treated with half the dose at 50 mg/kg twice a week or with a once weekly injection of 100 mg/kg (1×/wk). The effectiveness of the original drug regimen was compared to the two new treatment schedules using mice with subcutaneous tumors from the most DON-resistant (SK-N-FI) and the most DON-sensitive (SK-N-MC) cell line in vitro. This experiment would allow for the determination whether the in vitro data was predictive of differences in response to DON in vivo. Both of the new drug regimens allowed a significant extension in length of treatment from 11 days to greater than 24 days. However, only the 50 mg/kg dose was effective against both tumor types. […] In addition, the SK-N-BE2 and IMR32 neuroblastoma cell lines were tested at the 50 mg/kg dose in mice with subcutaneous tumors. The 50 mg/kg dose was effective against both tumor types (FIG. 7 A-C).
(§4) For subcutaneous tumor experiments, cells were injected into the hind flank of either 6-8 week old athymic (nu/nu) mice (Charles River) or into Rag2^−/−; gamma c^−/− mice (kindly provided by Dr. Shannon McKinney-Freeman). No difference in tumor growth kinetics was observed between different strains. SK-N-AS, SK-N-MC, and SK-ES-1 cells were injected at 2×10^6 cells per mouse in 100 μl total volume. SK-N-BE(2) cells were injected in a 1:1 mix of cells and Matrigel (BD Biosciences) at a final concentration of 2×10^6 cells per mouse. Tumor size was measured by digital caliper, and tumor volume was calculated using the formula 1/2*(length*width^2). When tumors reached an average size of 200 mm^3 mice were randomized into treatment groups. On the day of treatment, mice were weighed then given an intraperitoneal (i.p.) injection of either 100 mg/kg DON, 50 mg/kg or water control. All animal experiments were performed in accordance with the guidelines established by IACUC.

SK-ES-1 tumors = assay: Subcutaneous tumor growth; format: in vivo, mice; conditions: 100 mg/kg twice a week I.P.
Protocol: as §3, §4

SK-N-AS tumors [5] = assay: Subcutaneous tumor growth; format: in vivo, mice; conditions: 100 mg/kg twice a week I.P.
Protocol: as §3, §4

SK-N-BE(2) tumors [6] = assay: Subcutaneous tumor growth; format: in vivo, mice
Protocol: as §3, §4

SK-N-FI tumors = assay: Subcutaneous tumor growth; format: in vivo, mice; conditions: 50 mg/kg twice a week I.P.
Protocol: as §3, §4

SK-N-MC tumors = assay: Subcutaneous tumor growth; format: in vivo, mice
Protocol: as §3, §4

[7] = Tolerability in tumor-bearing mice (weight loss, length of treatment); format: in vivo
Protocol: as §3
For subcutaneous tumor experiments, cells were injected into the hind flank of either 6-8 week old athymic (nu/nu) mice (Charles River) or into Rag2^−/−; gamma c^−/− mice (kindly provided by Dr. Shannon McKinney-Freeman). No difference in tumor growth kinetics was observed between different strains. SK-N-AS, SK-N-MC, and SK-ES-1 cells were injected at 2×10^6 cells per mouse in 100 μl total volume. […] Tumor size was measured by digital caliper, and tumor volume was calculated using the formula 1/2*(length*width^2). […]

SK-N-AS tumors [8] = assay: IHC of BrdU and cleaved caspase-3 in tumors; format: in vivo, mice; conditions: ~1000 mm^3 tumors, 100 mg/kg DON day 1 and day 4
Protocol: (§5) To investigate the effects of DON on proliferation and cell death in vivo, additional NB tumor studies using SK-N-AS and SK-N-BE(2) cells were set up. Tumors in each cohort were allowed to grow to ˜1000 mm^3 before they underwent one round of DON treatment at 100 mg/kg of DON twice a week. On day 4, the second dose of DON was given 6-hrs prior and BrdU injected 2 hours prior to harvesting the tumors for histology (FIG. 3A).
(§6) For in vivo labeling of proliferating cells, mice with subcutaneous SK-N-AS or SK-N-BE(2) tumors (1000 mm^3) were treated with DON and injected with BrdU (BD Biosciences). Mice were given an intraperitoneal (i.p.) injection of 100 mg/kg DON on day 1 and again on day 4. Four hours after the second dose of DON, mice were injected i.p. with 150 μl of 10 mg/ml BrdU. Tumor tissue was harvested 2 hours after addition of BrdU and samples were fixed in 10% formalin. Paraffin-embedded tissue sections were then stained for BrdU incorporation by the St. Jude Veterinary Pathology Core.

SK-N-BE(2) tumors [9] = assay: IHC of BrdU and cleaved caspase-3 in tumors; format: in vivo, mice; conditions: ~1000 mm^3 tumors, 100 mg/kg DON day 1 and day 4
Protocol: as §5, §6

SK-N-AS cells [10] = assay: Cell cycle analysis by BrdU labeling (FACS); format: cell-based; conditions: 100 μM DON 72 hrs
Protocol: as §5
(§7) In vitro cell cultures were pulse-labeled with 10 μM BrdU (BD Biosciences) for 90 minutes at 37° C., and then fixed and stained with Anti-BrdU-FITC antibody and 7-AAD (BD Biosciences, #559619), according to manufacturer's protocol. Stained samples were then analyzed by the Flow Cytometry and Cell Sorting Shared Resource facility at St. Jude Children's Research Hospital.

SK-N-BE(2) cells [11] = assay: Cell cycle analysis by BrdU labeling (FACS); format: cell-based; conditions: 100 μM DON 72 hrs
Protocol: as §5, §7

SK-N-AS cells [12] = assay: Annexin / propidium iodide staining (FACS); format: cell-based; conditions: 100 μM DON 72 hrs
Protocol: as §5
(§8) To measure early apoptosis, cells were plated in EMEM media containing 0.5 mM L-glutamine, 10% FBS, and 1% Penicillin/Streptomycin, then treated+/−100 μM DON for 72 hours. Both adherent and floating cells in the media were collected at harvest, and 3×10^5 cells were then stained with Annexin-V-FITC antibody for 15 minutes at room temperature. Cells were then counterstained with propidium iodide (9.1 μM final concentration) and filtered through a 40 μm nylon mesh. Immediately after staining, samples were analyzed by the Flow Cytometry and Cell Sorting Shared Resource facility at St. Jude Children's Research Hospital.

SK-N-BE(2) cells [13] = assay: Annexin / propidium iodide staining (FACS); format: cell-based; conditions: 100 μM DON 72 hrs
Protocol: as §5, §8

[14] = children, previous work; cited from earlier work

In the case of `NOCC(=O)O` [AOA, aminooxyacetate], the single agent effect [1] is reported as “effective as single agents”.
With `CC1(C)CCC(c2ccc(Cl)cc2)=C(CN2CCN(c3ccc(C(=O)NS(=O)(=O)c4ccc(N[C@H](CCN5CCOCC5)CSc5ccccc5)c(S(=O)(=O)C(F)(F)F)c4)cc3)CC2)C1` [ABT-263, navitoclax] the “toxicity to BJ cells” value (BJ foreskin fibroblasts) was “non-toxic”, the “effectiveness on cancer cell lines” value [1] was “effective on all the cancer cell lines tested” and the “efficacy as single agent in vitro” value [1] was “some efficacy”. The oral bioavailability ([2]; in vivo, po) was “orally bioavailable”, the “major adverse side effect” value ([2]; in vivo) was “thrombocytopenia” and the safety and tolerability ([2]; in vivo) was “safe and well-tolerated”. The tolerability ([2]; phase I and phase II clinical trials in adults) was “well tolerated”.
For `COC1=CC(c2cc3ccccc3[nH]2)=N/C1=C\c1[nH]c(C)cc1C` [obatoclax mesylate], the “efficacy as single agent in vitro” value [1] was “some efficacy”.
In the case of `CC1=C(/C=C/C(C)=C/C=C/C(C)=C/C(=O)Nc2ccc(O)cc2)C(C)(C)CCC1` [fenretinide, N-(4-hydroxyphenyl)retinamide], the “toxicity to BJ cells” value (BJ foreskin fibroblasts) is listed as “non-toxic”, the “effectiveness on cancer cell lines” value [1] is listed as “effective on all the cancer cell lines tested” and the bioavailability [3] is listed as “poor bioavailability”.
With `[N-]=[N+]=CC(=O)CC[C@H](N)C(=O)O` [DON, 6-diazo-5-oxo-L-norleucine] the “reduction in cell numbers” value (SK-N-FI cells) was 20%, the “toxicity to BJ cells” value (BJ foreskin fibroblasts; broad ranges of drug concentrations) was “non-toxic” and the “loss in cell viability” value [4] was 80%. The “sensitivity to DON” value ([1]; all cell lines except control BJ, 72 hrs) was “some sensitivity”, the “effectiveness on cancer cell lines” value [1] was “effective on all the cancer cell lines tested” and the “loss in cell numbers” value ([1]; multiple cell lines, DON 72 hrs, 0.5 mM glutamine) was “greater than 60%”. The “efficacy as single agent in vitro” value [1] was “some efficacy”, the tumor growth (IMR32 tumors) was “effective” and the tumor growth (SK-ES-1 tumors) was “dramatically blocked growth”. For the same compound, the tumor growth (SK-N-AS tumors [5]) was “greatly reduced growth”, the tumor growth (SK-N-BE(2) tumors [6]; 50 mg/kg twice weekly I.P.) was “effective” and the tumor growth (SK-N-BE(2) tumors [6]; 100 mg/kg twice a week I.P.) was “greatly reduced growth”. The tumor growth (SK-N-FI tumors) was “effective”, the tumor growth (SK-N-MC tumors; 50 mg/kg twice a week I.P.) was “effective” and the tumor growth (SK-N-MC tumors; 100 mg/kg twice a week I.P.) was “dramatically blocked growth”. For the same compound, the length of treatment ([7]; 50 mg/kg twice a week or 100 mg/kg once weekly) was “greater than 24 days”, the “weight loss in the mice” value ([7]; 100 mg/kg twice a week I.P.) was “caused weight loss” and the length of treatment ([7]; original regimen 100 mg/kg twice a week) was 11 days. The caspase-3 cleavage (SK-N-AS tumors [8]) was “no difference”, the “reduction in BrdU incorporation” value (SK-N-AS tumors [8]) was greater than 90% and the “increase in caspase-3 cleavage” value (SK-N-BE(2) tumors [9]) was “greater than 2 fold”. The “reduction in BrdU incorporation” value (SK-N-BE(2) tumors [9]) was greater than 90%, the “entry into the S-phase of the cell cycle” value (SK-N-AS cells [10]) was “reduced entry into the S-phase” and the “entry into the S-phase of the cell cycle” value (SK-N-BE(2) cells [11]) was “reduced entry into the S-phase”. The cell death (SK-N-AS cells [12]) was “increase in cell death”, the cell death (SK-N-BE(2) cells [13]) was “increase in cell death” and the dose safely achievable [14] was no more than 520 mg/m^2.
With epigallocatechin-3-gallate [EGCG] the single agent effect [1] was “effective as single agents”.
